Data reported in patent US7732563B2, “Cloning, sequencing and expression of a gene encoding an eukaryotic amino acid racemase, and diagnostic, therapeutic, and vaccination applications of parasite and viral mitogens” (priority 1999, dated 2010).

Key:
total spleen cells = assay: In vitro proliferation assay of splenocytes (3H-thymidine uptake); format: cell-based, mouse; conditions: for mitogenic activity of rTcPA45 with cultures supplemented with increasing amounts of substrate: 3 mM to 50 mM substrate, dose-dependent, competitive inhibition; for cell proliferation of lymphocytes with substrate alone: 50 mM alone; for mitogenic activity of rTcPA45 after pre-incubation with inhibitor of proline racemase: 50 μg/ml rTcPA45 pre-incubated with 1 mM inhibitor; for 3H-thymidine uptake: after 48 h, ConA 10 μg/ml, LPS 5 μg/ml, BALB/c splenocytes 5×10^4 cells/well
Description: Briefly, freshly recovered splenocytes from 8 week old male Balb/c mice seeded at a concentration of 5×10^4 cells/well were incubated for 24, 48 and 72 h in 5% FCS RPMI-1640 medium. A 16 h ^3H-thymidine pulse at 1 μCi/well was performed before harvesting. ^3H-Thymidine uptake was determined in a beta-plate liquid scintillation counter (LKB-Wallac). All points were done in triplicate and the corresponding standard deviation calculated. For comparison, ^3H-thymidine uptake after 48 h in the presence of ConA (10 μg/ml) and LPS (5 μg/ml) was 32000 c.p.m. and 3500 c.p.m., respectively. T-cell depletion was performed by incubating freshly recovered spleen cells for 30 min at 37° C. in the presence of anti-Thy 1.2 monoclonal antibody (Cedarlane) and rabbit complement (Cedarlane). In order to rule out a possible mitogenic effect due to LPS contamination in samples, proliferation assays were also performed on freshly recovered splenocytes from the LPS non-responder mouse strain C3H/Hej. Same levels of proliferation were verified. Balb/c mice were purchased from Charles River, France. C3H/Hej mice were maintained in our animal facilities.
In vitro proliferation is accomplished using freshly recovered splenocytes from BALB/c mice seeded at a density of 5×10^4 cells/well and incubated for 24, 48 and 72 h with increasing concentrations of total parasite supernatants or recombinant TcPa45 protein or other mitogen (0.07-200 μg/ml) with 0.5 μg/ml of the HPLC fractions, or with the conventionally used mitogens concanavalin A (10 μg/ml) and lipopolysaccharide (5 μg/ml) in 5% FCS in RPMI-1640 complete medium. T-cell depletion is accomplished by incubating freshly recovered spleen cells for 30 min. at 37° C. in the presence of monoclonal antibodies against Thy 1.2 and rabbit complement (Cedarlane, Le Perray en Yvelines, France). Analysis of proliferative activity of total splenocytes (5×10^4 cells/well) in the presence of 50 μg/ml enzymatically active rTcPA45 or other mitogen is also compared with the proliferation obtained using the same amounts of rTcPA45 protein or other mitogen lacking racemase activity (by heating for 10 min. at […] or by long term storage at 4° C.). Inhibition of proliferation is obtained by adding to the splenocyte cultures 50 μg/ml rTcPA45 or other mitogen pre-incubated for 10 min. at 37° C. with 1 mM inhibitor, either specific (pyrrole-2-carboxylic acid) or nonspecific (iodoacetamide or iodoacetate). Competitive assays of proliferative activity by 50 μg/ml rtcPA45 or other mitogen are done by adding increasing concentrations of specific substrates i.e., proline racemase substrates (L- or D-proline) for the mitogen rTcPA45 ranging from 3 mM to 50 mM. Controls include the incubation of splenocytes (5×10^4 cells/well) with substrate alone, i.e., 50 mM L- or D-proline in RPMI medium alone for prline racemase. Cultures are collected after a 16-hour pulse or 1 μCi/well ^3H-thymidine uptake was determined in a beta-plate liquid scintillation counter (LKB-Wallac, Orsay, France). All data points are obtained in triplicate and the corresponding standard deviation is calculated.
5×10^5 naive spleen cells/well (96 well plate) were stimulated in vitro with different doses of rTcPA45 (ranging in FIG. 4b from 0.8 to 200 μg/ml final) for 24, 48 and 72 h, at 37° C., 5% CO2. Cultures were pulsed with ^3H-Thymidine (1 μCi/well) for 16-18 h before harvesting. ^3H-thymidine incorporation was obtained after counting using a beta-plate. Results present arithmetic means of c.p.m. (counts/minute) from 6 wells/dose of rTcPA45 or wells containing medium alone (+/−SD of the means). (FIG. 4b)

rTcPA45 proline racemase = molecular target: T1, rTcPA45 proline racemase (Trypanosoma cruzi, UniProt Q4DA80); format: biochemical; conditions: 80 mM L-proline; inhibitors 6 mM to 100 mM
T1 construct: made in house; host or cells: E. coli (pET28b(+))
Description: To investigate the genomic organization and transcription of the Tc45 gene, Southern and Northern blot analyses were done. FIG. 4 depicts the results of characterization of rTcPA45 activities. FIG. 4, part a, is an 8% SDS-PAGE gel of rTcPA45 (Coomasie blue staining). Part b depicts the proliferative activity of total splenocytes (5×10^4 cells/well) in the presence of increasing concentrations of rTcPA45 (μg/ml). […] Reaction conditions were: 0.2 M Na-acetate/25 mM β-mercaptoethanol buffer, pH6, rTcPA45 (3 μg/ml), 30 min incubation at 37° C. in 500 μl. The reaction was stopped by incubating for 10 min at 80° C. […] Reactions were carried out for 30 min at 37° C. and stopped for 5 min at 80° C. All reagents and inhibitors were purchased from Sigma. The shift in optical rotation was measured in a Polarimeter 241 MC (Perkin Elmer).
3 μg of rTcPA45 was diluted in 500 μl of buffer (0.2M NaOAc, […] β-mercaptoethanol, pH6.0) containing different concentrations of the substrate (10-80 mM or L- or D-proline). (See FIG. 4c.) The reaction was incubated for 30-60 minutes at 37° C. in a water bath, followed by heat inactivation of the enzyme for 10 minutes at 80° C. Each sample is diluted to 1.5 ml with water and the mixture submitted to measurement of optical rotation using a polarimeter, at 365 nm. A sample without enzyme is used as a control. For optimal pH determination, buffer systems with NaOAc, phosphate, and Tris were used with pH ranging from 4.0-8.2. Curve of temperature was performed between 27° C. to 47° C.
The percent of racemization of different concentrations of L-proline, D-proline, L-hydroxy-proline and D-hydroxy-proline substrates was calculated by incubating a 500-μl mixture of 3 μg TcPA45 and 10-80 mM substrate in 0.2 M sodium acetate and 25 mM β-mercaptoethanol, pH 6, for 30 min at 37° C. The reaction was stopped by incubation for 10 min at 80° C. Water (1 ml) was then added, and the optical rotation was measured in polarimeter 241 MC (Perkin Elmer, Montignyle Bretonneux, France) at a wavelength of 365 nm, in a cell with a path length of 10 cm. The percent inhibition of racemization of 80 mM L-proline was determined in the presence of different concentrations of several specific and nonspecific inhibitors ranging in concentration from 6 mM to 100 mM. The percent racemization of 80 mM L-proline as a function of pH was determined using 0.2 M sodium acetate, potassium phosphate and Tris-HCl buffers containing 25 mM β-mercaptoethanol; reactions were incubated for 30 min at 37° C. as described above. All reagents and inhibitors were purchased from Sigma.

T1 sequence (Q4DA80 30-423): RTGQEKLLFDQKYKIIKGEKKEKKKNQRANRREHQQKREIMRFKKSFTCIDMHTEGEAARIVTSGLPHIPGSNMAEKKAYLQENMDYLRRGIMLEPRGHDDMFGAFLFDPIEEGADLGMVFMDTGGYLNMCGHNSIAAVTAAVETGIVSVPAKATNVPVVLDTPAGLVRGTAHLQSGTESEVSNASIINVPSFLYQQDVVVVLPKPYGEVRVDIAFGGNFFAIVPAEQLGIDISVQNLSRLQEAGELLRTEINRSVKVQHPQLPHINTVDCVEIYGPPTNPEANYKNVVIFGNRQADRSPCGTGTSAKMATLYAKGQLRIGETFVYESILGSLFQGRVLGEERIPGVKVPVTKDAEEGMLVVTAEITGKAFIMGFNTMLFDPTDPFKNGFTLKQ

## O=C(O)[C@H]1CCCN1 [D-proline]
Total spleen cells
  mitogenic activity of rTcPA45 with cultures supplemented with increasing amounts of substrate: affected considerably
  cell proliferation of lymphocytes with substrate alone: no cell proliferation

## O=C(O)[C@@H]1CCCN1 [L-proline]
Total spleen cells
  mitogenic activity of rTcPA45 with cultures supplemented with increasing amounts of substrate: affected considerably
  cell proliferation of lymphocytes with substrate alone: no cell proliferation

## NC(=O)CI [iodoacetamide, reference compound]
Total spleen cells
  mitogenic activity of rTcPA45 after pre-incubation with inhibitor of proline racemase: abolished
rTcPA45 proline racemase
  inhibition of rTcPA45 enzymatic (racemase) activity: inhibited to different extents

## O=C(O)CI [iodoacetate, reference compound]
Total spleen cells
  mitogenic activity of rTcPA45 after pre-incubation with inhibitor of proline racemase: abolished
rTcPA45 proline racemase
  inhibition of rTcPA45 enzymatic (racemase) activity: inhibited to different extents

## O=C(O)/C=C\C(=O)O [maleic acid, reference compound]
rTcPA45 proline racemase
  inhibition of rTcPA45 enzymatic (racemase) activity: inhibited to different extents

## O=C(O)c1ccc[nH]1 [pyrrole-2-carboxylic acid, reference compound]
Total spleen cells
  mitogenic activity of rTcPA45 after pre-incubation with inhibitor of proline racemase: abolished
rTcPA45 proline racemase
  inhibition of rTcPA45 enzymatic (racemase) activity: inhibited to different extents

## concanavalin A [ConA]
Total spleen cells
  3H-thymidine uptake: 32000 c.p.m.
Total spleen cells; listed as concavalin A
  3H-thymidine uptake: 32,000 c.p.m.

## lipopolysaccharide [LPS]
Total spleen cells
  3H-thymidine uptake: 3500 c.p.m.
Total spleen cells; listed as lipopolysaccharide
  3H-thymidine uptake: 3,500 c.p.m.
